Experimental data taken from the METLIN SMRT retention time set (Domingo-Almenara et al. 2019).
Each block holds one molecule with its values, some of them ahead of it.

Assay: gradient 5% acetonitrile 3 min, to 50% in 2 min, to 85% in 15 min, held 3 min, 100 µL/min
Details: column: Zorbax Extend-C18 2.1 x 50 mm; eluents: water / acetonitrile, 0.1% formic acid
Summary of the method: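 The system's dead and dwell volumes were 40 μL and 900 μL, with a Zorbax Extend-C18 column (2.1 × 50 mm, 1.8 μm) run at 100 μL/min in water and acetonitrile containing 0.1% formic acid each. Pure standards were analyzed in mixtures of ~100 molecules by HPLC–quadrupole time-of-flight mass spectrometry in positive and negative ionization mode. Retention time was assigned from computationally picked, manually inspected adduct peaks.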

RP-LC retention time: 781 s
SMILES: COc1ccc(NC(=O)N2CCC3(CC2)NC(=O)c2ccccc2N3C)c(C)c1

RP-LC retention time: 634 s
SMILES: CCc1nnc(C2CN(C)CC23CCN(S(=O)(=O)c2ccc(F)c(C)c2)CC3)o1 (configuration not stated)

RP-LC retention time: 1010 s
SMILES: N#CCCN(CCC#N)c1ccc(/C=C2\N=C(c3cc([N+](=O)[O-])ccc3Cl)OC2=O)cc1

RP-LC retention time: 1010 s
SMILES: O=C(CSc1cc(N2CCN(c3ccccc3F)CC2)ncn1)N1CCc2ccccc21

RP-LC retention time: 650 s
SMILES: CCc1cc(C(=O)N2CCN(C(C)C)CC2)nc2cc(-c3ccccn3)nn12

RP-LC retention time: 686 s
SMILES: COCCC(=O)N1CCN(c2nc(CN3CCOCC3)cs2)CC1

RP-LC retention time: 684 s
SMILES: COC(=O)C1=CCCCCC(N2CCOCC2)=C1C(=O)OC

RP-LC retention time: 872 s
SMILES: CCC1Oc2ccc(S(=O)(=O)N3CCC(C(=O)NCCc4ccccc4)CC3)cc2NC1=O (configuration not stated)

RP-LC retention time: 924 s
SMILES: COc1ccc(-c2cn3ccn(-c4cc(C)c(Cl)cc4OC)c(=O)c3n2)cc1

RP-LC retention time: 893 s
SMILES: CCOc1ccc(NC(=O)c2oc3cc(C)c(Cl)cc3c2C)c2cccnc12

RP-LC retention time: 808 s
SMILES: Cc1cccc(NS(=O)(=O)c2cc3n(c2)CCN(CC(C)C)C3=O)c1

RP-LC retention time: 900 s
SMILES: COc1ccc(CNC(=O)C2(C)CCCN(S(=O)(=O)c3ccccc3F)C2)cc1 (configuration not stated)

RP-LC retention time: 872 s
SMILES: CCOc1ccc(C(C)NC(=O)c2c(C)sc3ccn(CC)c(=O)c23)cc1 (configuration not stated)

RP-LC retention time: 625 s
SMILES: CN(CCc1noc(-c2ccc(C(=O)N3CCN(c4ccccn4)CC3)cc2)n1)C(=O)c1ccccc1

RP-LC retention time: 748 s
SMILES: Cc1ccc(-c2nocc2CCC(=O)O)cc1

RP-LC retention time: 747 s
SMILES: CCc1cc(=O)n(CC(=O)N(CC)c2ccccc2)c(N2CCOCC2)n1

RP-LC retention time: 682 s
SMILES: COc1ccc(NC(=O)N(C)CC2CCOCC2)cc1F

RP-LC retention time: 593 s
SMILES: CCOCCCNC(=O)N1CCN(Cc2nc3cc(C(=O)NC(C)C)ccc3n2C)CC1

RP-LC retention time: 750 s
SMILES: Nc1cc(C2CCN(C(=O)Nc3ccc(F)c(Cl)c3)CC2)no1

RP-LC retention time: 789 s
SMILES: Cn1nc(-c2nc(-c3ccc(F)cc3)no2)c2c1CCN(C(=O)C1CCCO1)C2 (configuration not stated)

RP-LC retention time: 854 s
SMILES: CC(C)c1ccc(NC(=O)Cc2nnc(-c3ccc4ncccc4c3)o2)cc1

RP-LC retention time: 714 s
SMILES: Cc1cc2nc(C(=O)NC3CC3)c(=O)n(C)c2cc1C

RP-LC retention time: 708 s
SMILES: N#CC1(C(=O)NCCc2cccs2)CC1

RP-LC retention time: 829 s
SMILES: CCC(C)c1ccccc1NC(=O)C1CCN(C(=O)C(C)(C)C)CC1 (configuration not stated)

RP-LC retention time: 612 s
SMILES: CCCc1cc(N2CCN(C(=O)c3ccc(N(C)C)cc3)CC2)nc2nncn12

RP-LC retention time: 575 s
SMILES: Cn1cc(CN2CCn3c(nnc3[C@@H]3C[C@@H](O)CN3Cc3cccnc3)C2)c2ccccc21

RP-LC retention time: 900 s
SMILES: COc1ccc(-c2noc(Cn3nc(-c4ccccc4)ccc3=O)n2)cc1OC

RP-LC retention time: 1320 s
SMILES: Cc1ccc(C)c(NS(=O)(=O)c2cc(-c3cc(C(F)(F)F)on3)sc2C)c1

RP-LC retention time: 698 s
SMILES: O=C(CCNc1c(-c2ccccc2)nc2cnccn12)NCc1ccccc1F

RP-LC retention time: 921 s
SMILES: Cc1nn(-c2cc(N3CCCC3)ncn2)c(C)c1CCC(=O)NCc1ccc2c(c1)OCO2

Continued, molecule first:

SMILES: CCC(C)(C)NS(=O)(=O)c1cccc(-c2nc(-c3ccc(C)cc3)no2)c1
RP-LC retention time: 1290 s

SMILES: Cc1coc2c(C)c3oc(=O)c(CCC(=O)NCCc4c[nH]c5ccccc45)c(C)c3cc12
RP-LC retention time: 964 s

SMILES: CCNC(=O)Nc1ccc2c(c1)CN(Cc1ccc(F)cc1F)CCO2
RP-LC retention time: 611 s

SMILES: COC(=O)c1cc(S(=O)(=O)N2CCCC2C(=O)Nc2cc(OC)cc(OC)c2)cn1C (configuration not stated)
RP-LC retention time: 867 s

SMILES: O=C(COc1ccccc1[N+](=O)[O-])N(Cc1ccccc1)Cc1ccccc1
RP-LC retention time: 1000 s

SMILES: O=C(NCCCN1CCCCC1)C1CCN(c2nc3cccnc3s2)CC1
RP-LC retention time: 577 s

SMILES: COc1ccc(N2C=C(C(=O)N3CCOCC3)S(=O)(=O)c3ccc(F)cc32)cc1
RP-LC retention time: 778 s

SMILES: O=C([C@@H]1C[C@H](F)CN1C(=O)Nc1cccc(F)c1)N1CCOCC1
RP-LC retention time: 628 s

SMILES: CCOC(=O)c1[nH]c(C)c(C(=O)N2CCC(CC(=O)N3CCCCCC3)CC2)c1C
RP-LC retention time: 739 s

SMILES: O=C(Nc1cccc(Br)c1)c1cnc(-c2ccccc2)nc1-c1ccncc1
RP-LC retention time: 990 s

SMILES: CCC(=O)N1CCc2cc(CNS(=O)(=O)c3ccccc3)ccc21
RP-LC retention time: 790 s

SMILES: Cc1ccc(S(=O)(=O)N(C)c2ccccc2)s1
RP-LC retention time: 901 s

SMILES: O=C(NCc1cccs1)C1CN(S(=O)(=O)c2cccnc2)CC12CCCCC2 (configuration not stated)
RP-LC retention time: 856 s

SMILES: COc1ncc(C(=O)Nc2ccccc2)c(C)n1
RP-LC retention time: 698 s

SMILES: COc1ccc(CC(C)(O)CNC(=O)c2cccc(C(F)(F)F)c2)cc1 (configuration not stated)
RP-LC retention time: 823 s

SMILES: COc1ccc(C(=O)NC2CCN(c3cc(-c4ccccc4)[nH]n3)C2)cc1OC (configuration not stated)
RP-LC retention time: 663 s

SMILES: CCc1cccc(NC(=O)Cn2c(C)nc3c(sc4nc(-c5ccccc5)ccc43)c2=O)c1
RP-LC retention time: 1170 s

SMILES: O=C1CN(C(=O)CN2CCCCC2)C(c2ccccc2)c2cc(Br)ccc2N1 (configuration not stated)
RP-LC retention time: 656 s

SMILES: COc1ccc(CSc2nc3ccccc3[nH]2)cc1
RP-LC retention time: 625 s

SMILES: Cc1ccccc1-c1noc2ncnc(N3CCN(c4ccccn4)CC3)c12
RP-LC retention time: 673 s

SMILES: CC(C)c1nnc(NC(=O)c2cc(Cl)ccc2Cl)s1
RP-LC retention time: 828 s

SMILES: Cc1cc(=O)n(CC(=O)Nc2cccc(C)c2C)c(N)n1
RP-LC retention time: 600 s

SMILES: O=C(c1cc(-c2cccnc2)n[nH]1)N1CCCC(C(=O)N2CCN(c3ccc(Cl)cc3)CC2)C1 (configuration not stated)
RP-LC retention time: 685 s

SMILES: CCCCCn1c(=O)c2ccccc2n(Cc2nc(-c3ccc(Cl)cc3)no2)c1=O
RP-LC retention time: 1340 s

SMILES: CCn1ccc(C(=O)N2CC(Oc3cccc(-c4nc(C)no4)c3)C2)n1
RP-LC retention time: 808 s

SMILES: Cc1ccc(NC(=O)Cn2nc3c(N4CCCCCC4)nccn3c2=O)cc1F
RP-LC retention time: 739 s

SMILES: Cc1ccc(-c2ncccc2CNS(=O)(=O)c2cccs2)cc1
RP-LC retention time: 675 s

SMILES: CCCC(=O)N1CCc2c([nH]c3ccccc23)C1c1ccc(C)cc1 (configuration not stated)
RP-LC retention time: 1150 s

SMILES: Cc1sc(NC(=O)c2ccc(F)cc2)nc1-c1ccc2c(c1)NC(=O)CO2
RP-LC retention time: 872 s

SMILES: O=C(NCc1csc(C2CCN(S(=O)(=O)c3ccccc3F)CC2)n1)C1CCC1
RP-LC retention time: 811 s

SMILES: COCCCNC(=O)CN1c2ccccc2NC2=C(C(=O)CC(C)(C)C2)C1c1ccc(C)cc1 (configuration not stated)
RP-LC retention time: 822 s

SMILES: CN(C)c1ccc(-c2nc(-c3cn(Cc4cccc(F)c4)nn3)no2)cc1
RP-LC retention time: 1020 s

SMILES: COCC(=O)NC1CCC12CCN(S(=O)(=O)C(C)C)CC2 (configuration not stated)
RP-LC retention time: 682 s

SMILES: CCN(CC)S(=O)(=O)c1ccc2c(c1)N(CC(=O)N1CCCCCC1)C(=O)C1CCCCN21 (configuration not stated)
RP-LC retention time: 996 s

SMILES: CC(=O)N1CCC2(CC1)CC(CC(=O)N(C)C)CCO2 (configuration not stated)
RP-LC retention time: 587 s

SMILES: CCOc1ccc(-n2ccn3cc(-c4ccc(C)cc4)nc3c2=O)cc1
RP-LC retention time: 879 s

SMILES: Cc1ccc(C)c(C(=O)N2C[C@@H](F)C[C@H]2C(=O)N2CCCCC2)c1
RP-LC retention time: 710 s
